Data taken from patent US20090226427A1, “NOVEL PHARMACEUTICAL COMPOSITIONS FOR MODULATING ANGIOGENESIS” (priority 1999, published 2009).

Experiments:
hsp90/eNOS interaction = experiment: hsp90/eNOS co-immunoprecipitation, VEGF-exposed HUVEC; type: cell-based, human
phospho-Ser1177-eNOS [1] = experiment: phospho-Ser1177-eNOS immunoblot, statin-exposed HUVECs
[Ca^2+]i = Fura-2 measurement of [Ca2+]i in VEGF-exposed EC; type: cell-based, human
Description: Alternating wavelength excitation of 340 and 380 nm was provided by a motorized filter wheel. The image pairs monitored by the Ionoptix Myocam camera were processed by the IonWizard software (Ionoptix, Milton, Mass.) and are presented as the fluorescence ratio (340/380 nm), a direct index to the [Ca^2+]i. In some experiments, Fura-2-loaded cells were preincubated with the intracellular calcium chelator BAPTA/AM (20 μM).

CaM/eNOS interaction = experiment: CaM/eNOS co-immunoprecipitation, EC; type: cell-based, human
Description: (§1) Immunoprecipitation, Immunoblotting, and Kinase Assay was performed as follows: EC were homogenized in a buffer containing phosphatase and protease inhibitors (Garcia-Cardena, G., et al. (1998) Nature 392, 821-824), and processed for immunoblotting or immunoprecipitation in a octyl glucoside-containing buffer as described previously (Feron, O., et al. (1998) J. Biol. Chem. 273, 3125-3128). Caveolin, eNOS, and hsp90 antibodies were from BD Transduction Labs, Akt and phospho-Akt antibodies from BD PharMingen, CaM antibody from Santa Cruz, and phospho-eNOS antibody from NEB Cell Signaling Technology. Akt activity was measured using a non-radioactive immunoprecipitation kinase assay kit (NEB Cell Signaling Technology).
In order to further dissect the calcium dependence of the Akt-mediated phosphorylation of eNOS, the eNOS/CaM association was examined after 2 and 30 min VEGF exposure, i.e. at the maximum of the calcium transient and after the return of [Ca^2+]i to its basal level, respectively.

eNOS/hsp90 interaction = experiment: eNOS/hsp90 co-immunoprecipitation, statin-exposed HUVECs; settings: mevalonate 1 mmol/L, BAPTA-AM 20 μmol/L, CSD peptide loading
phospho-Ser473-Akt [2] = experiment: phospho-Ser473-Akt immunoblot, VEGF-exposed HUVEC; type: cell-based, human
phospho-Ser1177-eNOS [3] = experiment: phospho-Ser1177-eNOS immunoblot, VEGF-exposed HUVEC; type: cell-based, human
caveolin-eNOS complex = experiment: caveolin/eNOS co-immunoprecipitation, VEGF-exposed HUVEC; type: cell-based, human; settings: for effect on VEGF-induced caveolin/eNOS dissociation: geldanamycin, BAPTA
Description: as §1, with “(1998) J. Biol. Chem. 273, 30249-30254) and plated at 5×10^5 cells/ml. […] Immunoprecipitation,” for “Immunoprecipitation,”, “(Garcia-[…].,” for “(Garcia-Cardena, G.,”, “Technology). […] First, extracts were immunoprecipitated with caveolin antibodies and the immuno-precipitation immunoblotted with eNOS antibodies (FIG. 10A, top). […] Experiments were then performed to determine the time course of hsp90 interaction with eNOS.” for “Technology).”

phospho-Ser473-Akt [4] = experiment: phospho-Ser473-Akt immunoblot, statin-exposed HUVECs; settings: for (basal) level of Akt phosphorylation: phosphatase inhibitor
Akt/eNOS interaction = experiment: Akt/eNOS co-immunoprecipitation, VEGF-exposed HUVEC; type: cell-based, human
Description: Immunoprecipitation, Immunoblotting, and Kinase Assay was performed as follows: EC were homogenized in a buffer containing phosphatase and protease inhibitors (Garcia-[…] ., et al. (1998) Nature 392, 821-824), and processed for immunoblotting or immunoprecipitation in a octyl glucoside-containing buffer as described previously (Feron, O., et al. (1998) J. Biol. Chem. 273, 3125-3128). Caveolin, eNOS, and hsp90 antibodies were from BD Transduction Labs, Akt and phospho-Akt antibodies from BD PharMingen, CaM antibody from Santa Cruz, and phospho-eNOS antibody from NEB Cell Signaling Technology. Akt activity was measured using a non-radioactive immunoprecipitation kinase assay kit (NEB Cell Signaling Technology). It was further analyzed whether eNOS and Akt interact together in eNOS/Akt co-immunoprecipitation experiments. […] In an attempt to appreciate the proportion of eNOS involved in the geldanamycin-sensitive recruitment of Akt, the reverse co-immunoprecipitation assay was further developed: hsp90 and Akt antibodies were used to immunoprecipitate eNOS (which was detected by immunoblotting) and the supernatants of these immunoprecipitations were checked for residual eNOS presence; for this purpose, the immunoprecipitated supernatants were submitted to a second immunoprecipitation with eNOS antibodies.

eNOS = experiment: nitrite (NO2-) detection, VEGF-stimulated EC; type: cell-based, human
Description: Nitrite was Detected as follows: Quantitative analysis of nitrite (NO2^−) was used as an index of NO production. Briefly, aliquots of the medium bathing intact EC were collected at the time intervals corresponding to either 0-2 or 5-30 min of VEGF exposure. For the latter period, the medium bathing the VEGF-stimulated cells for the first 5 min was discarded and replaced by fresh VEGF-containing medium for the next 25 min. […] Data are normalized for the amount of protein in the dish, and are presented for convenience as mean+/−S.E. Statistical analyses were made using Student's t test or one-way ANOVA where appropriate.

endothelial cells = experiment: sandwich Matrigel model of endothelial tube formation; type: cell-based
Description: Indeed, while endothelial cells culture leads to pavimentous organization when plated on dishes (FIG. 1A), endothelial cells progressively form tubes when cultured within gels of collagen, fibrin or Matrigel®. Accordingly, in the “3-D model”, endothelial cells are mixed to the matrix before gelification and tube-like structures are obtained after 48-72 hours (FIG. 1B); this model, however, reduces the efficiency of transfection. In the “sandwich model”, cells are first cultured to confluence on a first layer of matrix, and are then covered by a second matrix layer; cells are easily transfected in the interval preceding the addition of the upper layer. The latter technique allows the formation of endothelial tubes in 3-6 hours; the tube structures are mature 12 hours after induction (FIG. 1C) and then start to regress.
Of note, when endothelial cells were transfected with an irrelevant construct (β-galactosidase-encoding), no change in the rate and extent of tube formation was observed.

wild-type eNOS = experiment: nitrite production in transfected COS cells, wild-type eNOS; type: cell-based
[5] = test system: phospho-Akt/eNOS interaction; experiment: eNOS/phospho-Akt co-immunoprecipitation, statin-exposed HUVECs; settings: co-IP
HUVECs = experiment: angiogenesis assay on Matrigel, HUVECs; type: cell-based, human; settings: HUVECs on Matrigel, atorvastatin
Description: (§2) Tube formation was observed using an inverted phase-contrast microscope (Zeiss Axiovert 25), and images were captured with a videographic system (Pixera Pro). The tube formation index was determined by measuring the length of tubes in random fields from each well using the Image J program. Statistical analyses were made using the Student t test or one-way ANOVA where appropriate.
Transfection and peptide loading was performed by reversible permeabilization: HUVECs were transfected with the hsp90 cDNA (a gift from Dr W. C. Sessa, Yale University, New Haven, Conn.) using Lipofectamine (Invitrogen) according to the manufacturer's protocol; an irrelevant plasmid encoding β-galactosidase was used as a control to obtain identical amounts of transfected DNA in each condition. HUVECs were also reversibly permeabilized, as previously reported (Feron et al. J Biol. Chem. 1998; 273:30249-30254), to introduce synthetic peptides derived from the caveolin scaffolding domain (CSD).

AoECs = experiment: aortic ring culture in Matrigel, AoEC network organization; type: cell-based, rat; settings: L-NAME added at the time of serum deprivation
Description: as §2, with “Cultures of AoECs and CoMECs organized in a network were then challenged at day 5 by incubation under serum-free conditions for 24 to 48 hours with or without some of the drugs mentioned above. […] Tube” for “Tube”

CMECs = experiment: angiogenesis assay on Matrigel, CMECs; type: cell-based, Mouse; settings: CMECs; L-NAME 5 mmol/L coincubation; geldanamycin 1 μg/mL 30-minute preincubation
Description: as §2

[6] = eNOS antibodies, geldanamycin 1 μg/ml 30 min, BAPTA
[7] = nitrite production normalized per min

CC(=O)OCOC(=O)CN(CC(=O)OCOC(C)=O)c1ccccc1OCCOc1ccccc1N(CC(=O)OCOC(C)=O)CC(=O)OCOC(C)=O [BAPTA-AM]
effect on VEGF-induced hsp90/eNOS co-immunoprecipitation (hsp90/eNOS interaction; [6]): completely prevented | effect on statin-induced phosphorylation of eNOS (phospho-Ser1177-eNOS [1]; atorvastatin 1 μmol/L, LY294002 10 μmol/L, geldanamycin 1 μg/mL, mevalonate 1 mmol/L, BAPTA-AM 20 μmol/L, CSD peptide loading): abrogated | effect on VEGF-evoked calcium transient ([Ca^2+]i; 20 μM BAPTA-AM): completely abrogated | effect on the basal level of [Ca^2+]i ([Ca^2+]i; 20 μM BAPTA-AM): no effect | effect on VEGF-induced CaM/eNOS interaction (CaM/eNOS interaction; BAPTA pretreatment): completely abrogated | effect on atorvastatin-stimulated eNOS/hsp90 interaction (eNOS/hsp90 interaction): abrogated | effect on VEGF-induced Akt phosphorylation (phospho-Ser473-Akt [2]; LY294002 10 μM 1-h preincubation, geldanamycin 1 μg/ml, BAPTA): not altered | effect on VEGF-induced eNOS phosphorylation (phospho-Ser1177-eNOS [3]; LY294002 10 μM 1-h preincubation, geldanamycin 1 μg/ml, BAPTA-AM 20 μM): prevented | effect on VEGF-induced caveolin/eNOS dissociation (caveolin-eNOS complex): complete inhibition | effect on statin-induced phosphorylation of Akt (phospho-Ser473-Akt [4]; CSD peptide loading, BAPTA-AM added 30 minutes before statin): blocked | effect on VEGF-induced Akt/eNOS co-immunoprecipitation (Akt/eNOS interaction; [6]): prevented | level of eNOS activation for the 5-30-min period (eNOS; BAPTA added after the early phase (at t=5 min), versus vehicle): no significant reduction | effect on early VEGF-induced eNOS activation (0-2 min) (eNOS; [7]): sufficient to block | effect on late VEGF-induced eNOS activation (5-30 min) (eNOS; [7]): sufficient to block

CC(=O)N[C@@H](C(=O)O)C(C)(C)SN=O (racemic) [SNAP]
effect on the anti-angiogenic effect observed in caveolin-overexpressing cells (endothelial cells; caveolin-overexpressing cells): correct this anti-angiogenic effect | endothelial tube formation (endothelial cells; non-transfected cells): accelerated the endothelial tube formation

CNc1ccc2oc(C[C@H]3O[C@@]4(CC[C@H]3C)O[C@H]([C@H](C)C(=O)c3ccc[nH]3)[C@H](C)C[C@H]4C)nc2c1C(=O)O [A23187]
eNOS/CaM association (CaM/eNOS interaction; short exposure to A23187): led to the early association between eNOS and CaM | early NO2^− production (0-2 min) relative to the level obtained with VEGF (eNOS; 1 μM A23187 pulse for 2 min): ~3 fold | long-term NO2^− production compared with VEGF-exposed cells (eNOS; 1 μM A23187 pulse for 2 min, then Ca^2+-free medium): significantly lower

VEGF
proportion of eNOS pool engaged in hsp90 interaction (hsp90/eNOS interaction; 5 min VEGF, reverse immunoprecipitation with hsp90 antibodies): around half of the total eNOS pool | cell exposure needed for hsp90 co-immunoprecipitation with eNOS (hsp90/eNOS interaction; VEGF 50 ng/ml): ≥ 2 min | time to peak of calcium transient ([Ca^2+]i; VEGF exposure): 1 min | persistence of the CaM/eNOS association (CaM/eNOS interaction; VEGF): at least 30 min | time at which CaM could be detected in the eNOS immune complex (CaM/eNOS interaction; after VEGF stimulation): 2 min | time at which Akt phosphorylation was already observed (phospho-Ser473-Akt [2]; VEGF exposure): 30 s | time to maximal eNOS phosphorylation (phospho-Ser1177-eNOS [3]; VEGF exposure): at least 5 min | time to complete dissociation of eNOS from caveolin (caveolin-eNOS complex; VEGF 50 ng/ml): ≤ 2 min | time for which dissociation was maintained (caveolin-eNOS complex; in the presence of VEGF): at least 30 min | proportion of eNOS pool engaged in Akt interaction (Akt/eNOS interaction; 5 min VEGF, reverse immunoprecipitation with Akt antibodies): around half of the total eNOS pool | time from which Akt association to eNOS could be detected (Akt/eNOS interaction; VEGF stimulation): ≥ 2 min | rate of NO2- produced in the first 5-min interval versus the following 30 min (eNOS; after VEGF stimulation, preliminary experiments): 2-3 fold | absolute amount of NO2^− produced in the 5-30-min period versus the first 2-min VEGF exposure (eNOS; control conditions): 5.5 fold | amounts of NO2^− in the 55-60-min interval (eNOS; following VEGF stimulation): below the detection level

COC1=C2C[C@@H](C)C[C@H](OC)[C@H](O)[C@@H](C)/C=C(\C)[C@H](OC(N)=O)[C@@H](OC)/C=C\C=C(/C)C(=O)NC(=CC1=O)C2=O [geldanamycin]
part of the recombinant hsp90- and hsp90/Akt-mediated increase in NO production blocked (wild-type eNOS; COS cells, preincubation): 70-95% | part of the Akt-dependent increase in nitrite production blocked (wild-type eNOS; WT-eNOS COS cells pretreated for 30 min): around 70% | effect on VEGF-induced caveolin/eNOS dissociation (caveolin-eNOS complex): no significant effect | effect on early VEGF-induced eNOS activation (0-2 min) (eNOS; [7]): no significant effect

calyculin
(basal) level of Akt phosphorylation (phospho-Ser473-Akt [4]): stimulated Akt phosphorylation

C=C1[C@@H](O)[C@@H]2O[C@]3(CC[C@H](/C=C/[C@@H](C)[C@@H]4CC(C)=C[C@@]5(O[C@H](C[C@@](C)(O)C(=O)O)CC[C@H]5O)O4)O3)CC[C@H]2O[C@@H]1[C@@H](O)C[C@H](C)[C@H]1O[C@@]2(CCCCO2)CC[C@H]1C [okadaic acid]
increase of statin-induced phosphorylation of eNOS in the presence of okadaic acid (phospho-Ser1177-eNOS [1]; okadaic acid versus okadaic acid+statin, 100 nmol/L): ~3 fold | effect on phospho-Akt/eNOS interaction upon statin [5]: promoted | (basal) level of Akt phosphorylation (phospho-Ser473-Akt [4]): dramatically increased | effect on statin-induced tube formation (HUVECs): stimulated basal and statin-induced tube formation

COC(=O)[C@@H](N)CCCNC(=N)N[N+](=O)[O-] [L-NAME, N^G-nitro-L-arginine methyl ester]
effect on statin stabilisation of the network (AoECs): abrogated the beneficial effects of statin pretreatment | effect on atorvastatin-induced tube formation (CMECs): almost completely blocked
